From patent US20210161189A1, “MONOESTER SUGAR DERIVATIVES AS FLAVOR MODIFIERS” (Firmenich SA, priority 2018, published 2021)

System: sensory panel
Assay: Taste modifier properties in model systems (sensory panel of 15 persons, with/without noseclip)
Format: in vivo, human
Conditions: 100 ppm
Procedure: The sensory properties of various compositions comprising a monoester derivative of glucose were tested in various model systems, outlined in Table 14 below. [table] FIGS. 12 to 18 report the sweetness modifier properties of each of the following compounds (tested at 100 ppm in the various mode systems described above): glucose-6-O-octanoate, glucose-6-O-acetate, glucose-6-O-hexanoate, glucose-6-O-decanoate, glucose-6-O-hexadecanoate, glucose-6-O-oleate and glucose-6-O-oleyl derivative. The sensory properties were evaluated by a sensory panel consisting of15 persons, where the properties were evaluated with the subjects wearing a noseclip (With NC), and without a noseclip (Without NC). The subjects evaluate the perceived intensities of different sensory attributes on a linear scale (“0” note intense to “10” very intense) for the corresponding model mixtures without and with the compound at 100ppm. The differences of perceived intensities between the model mixtures with and without the compound are represented for each attribute. A statistical data treatment (unilateral paired student test) is achieved on each attribute to conclude on a significant or not significant taste modulation effect of the compound.

[1] = SG95-sour model system, with and without nose clip, significance 95%
[2] = SG95, with nose clip, significance 95%

## CC(=O)OC[C@@H](O)[C@@H](O)[C@H](O)[C@@H](O)C=O [glucose-6-O-acetate]
SG95
  Licorice taste modulation effect: slight masking effects
  Sweet lingering modulation effect: slight masking effects
Model system not stated
  Bitterness modulation effect: slight bitterness masking effet
Sucrose model mixture
  Sweet taste modulation effect: slights enhancing sweetness effects
Tasted model systems
  Taste modulation effects overall: no significant modulation effects

## CCCCCCCCCC(=O)OC[C@@H](O)[C@@H](O)[C@H](O)[C@@H](O)C=O [glucose-6-O-decanoate]
SG95-sour model system, without nose clip, significance 95%
  Licorice taste modulation effect: significant licorice taste masking effect
All the other model systems
  Taste modulation effects: no significant effects

## CCCCCCCCCCCCCCCC(=O)OC[C@@H](O)[C@@H](O)[C@H](O)[C@@H](O)C=O [glucose-6-O-hexadecanoate]
SG95/sour model system, without nose clip, significance 95%
  Sweet taste modulation effect: significant sweet masking effect
Grapefruit beverage, significance 95%
  Round/thick/mouth coating modulation effect: significant round/thick/mouth coating enhancing effect
With nose clip, significance 95%
  Bitter taste modulation effect: significant bitter enhancing effect

## CCCCCC(=O)OC[C@@H](O)[C@@H](O)[C@H](O)[C@@H](O)C=O [glucose-6-O-hexanoate]
[1]
  Licorice taste modulation effect: significant licorice taste masking effect
  Sour taste modulation effect: significant sour enhancing effect
[2]
  Sweet lingering modulation effect: significant sweet and sweet lingering masking effects
  Sweet taste modulation effect: significant sweet and sweet lingering masking effects
Sweet and sour model system, with and without nose clip, significance 95%
  Sweet taste modulation effect: significant sweet enhancing effect

## CCCCCCCC/C=C\CCCCCCCC(=O)OC[C@@H](O)[C@@H](O)[C@H](O)[C@@H](O)C=O [glucose-6-O-oleate]
[1]
  Licorice taste modulation effect: significant licorice taste masking effect
SG95 model system, with and without nose clip, at least 95%
  Licorice taste modulation effect: significant licorice taste masking effect
Without nose clip, significance 95%
  Bitter taste modulation effect: significant bitter enhancing effect
Without nose clip, significance 95%, model system not stated
  Sweet lingering modulation effect: significant sweet lingering masking effect

## glucose-6-O-oleyl derivative
[2]
  Sweet lingering modulation effect: significant sweet lingering masking effect
Beverage grapefruit, significance 95%
  Flavor intensity modulation effect: significant flavor intensity masking effect
